Patent US20240002375A1, “2-(INDAZOL-5-YL)-6-(PIPERIDIN-4-YL)-1,7-NAPHTHYRIDINE DERIVATIVES AND RELATED COMPOUNDS AS MODULATORS FOR SPLICING NUCLEIC ACIDS AND FOR THE TRE” (REMIX THERAPEUTICS INC., priority 2020, published 2024)
Counter-ions that a name gives are not always drawn. Like-named read-outs stand apart in the source and are kept apart here.

Key:
Assay type in all cases: cell-based
[1] = tested on: HTT mRNA; experiment: Splicing assay (RT-qPCR) of HTT mRNA alternative junction (AJ) and canonical junction (CJ)
Summary of the method: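 A673 (adherent, 24 h pre-plating) or K562 cells treated 24 h at 37 °C with an 11-point 3-fold dilution series, top 10 uM, DMSO ≤0.25%. Lysates analysed by one-step RT-qPCR for HTT canonical (CJ) and alternative-exon (AJ) junctions, normalised to PPIA (A673) or GAPDH/GUSB (K562).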

[2] = tested on: HTT CJ mRNA; experiment: Gene panel canonical junction qPCR splicing assay, HTT; conditions: Table 4, read-out: HTT IC50 (decrease in CJ mRNA levels)
Summary of the method: (§1)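 A673 or K562 cells treated with compound; canonical-junction mRNA measured by RT-qPCR with junction-spanning primer/probe sets, normalized to GAPDH, GUSB or PPIA and DMSO (2^−ΔΔCt). IC50 for CJ decrease from 4-parameter logistic fit of percentage response.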

[3] = tested on: SMN2 CJ mRNA; experiment: Gene panel canonical junction qPCR splicing assay, SMN2; conditions: Table 4, read-out: SMN2 IC50 (decrease in CJ mRNA levels)
Summary of the method: as §1

[4] = tested on: Target C CJ mRNA; experiment: Gene panel canonical junction qPCR splicing assay, Target C; conditions: Table 4, read-out: Target C IC50 (decrease in CJ mRNA levels)
Summary of the method: as §1

[5] = decrease in CJ mRNA, A673 or K562 cells, 24 hours, read-out: HTT CJ IC50
[6] = increase in AJ mRNA, A673 or K562 cells, 24 hours, read-out: HTT AJ AC50
[7] = 24 h, read-out: HTT AJ AC50 (nM)
[8] = 24 h, read-out: HTT CJ IC50 (nM)

Row | SMILES | IC50 [1, 5] [nM] | AC50 [1, 6] [nM] | IC50 [2] [µM] | IC50 [3] [µM] | IC50 [4] [µM] | AC50 [1, 7] [nM] | IC50 [1, 8] [nM]
1 | Cn1cc2cc(O)c(-c3ccc4nc(C5CCNCC5)ccc4n3)cc2n1 [Compound 146, 2-methyl-6-[6-(piperidin-4-yl)-1,5-naphthyridin-2-yl]indazol-5-ol] | 1000 to 10000 | 1000 to 10000 | 1 to 10 | 0.1 to 1 | 1 to 10 | – | –
2 | Cc1nc2cc(O)c(-c3ccc4nc(C5CCNCC5)ccc4n3)cc2o1 [Compound 147, 2-methyl-6-[6-(piperidin-4-yl)-1,5-naphthyridin-2-yl]-1,3-benzoxazol-5-ol] | < 100 | < 100 | < 0.1 | < 0.1 | < 0.1 | – | –
3 | Cc1nc2cc(O)c(-c3ccc4nc(C5CCNCC5)ccc4n3)cc2s1 [Compound 148] | 1000 to 10000 | 1000 to 10000 | 1 to 10 | < 0.1 | 1 to 10 | – | –
4 | Cc1cn2cc(-c3ccc4nc(C5CCNCC5)ccc4n3)c(O)cc2n1 [Compound 149, 2-methyl-6-[6-(piperidin-4-yl)-1,5-naphthyridin-2-yl]imidazo[1,2-a]pyridin-7-ol] | > 10000 | > 10000 | > 10 | 0.1 to 1 | > 10 | – | –
5 | Cc1cn2nc(-c3ccc4nc(C5CCNCC5)ccc4n3)c(O)c2c(C)n1 [Compound 150, 4,6-dimethyl-2-[6-(piperidin-4-yl)-1,5-naphthyridin-2-yl]pyrazolo[1,5-a]pyrazin-3-01] | < 100 | < 100 | < 0.1 | < 0.1 | < 0.1 | – | –
6 | Cc1cn2cc(-c3ccc4nc(C5CCNCC5)ccc4n3)c(O)c(C)c2n1 [Compound 151, 2,8-dimethyl-6-(6-(piperidin-4-yl)-1,5-naphthyridin-2-yl)imidazo[1,2-a]pyridin-7-ol hydrochloride] | 100 to 1000 | 100 to 1000 | 0.1 to 1 | 0.1 to 1 | 0.1 to 1 | – | –
7 | c1c[nH]c(-c2ccc3nc(C4CCNCC4)ccc3n2)n1 [Compound 152, 2-(1H-imidazol-2-yl)-6-(piperidin-4-yl)-1,5-naphthyridine] | > 10000 | > 10000 | > 10 | 1 to 10 | > 10 | – | –
8 | Cn1cc2cc(-c3ccc4nc(N5CC[C@@H](NC(C)(C)C)C5)ccc4n3)c(O)cc2n1 [Compound 153, 5-{6-[(3R)-3-(tert-butylamino)pyrrolidin-1-yl]-1,5-naphthyridin-2-yl}-2-methylindazol-6-ol] | < 100 | < 100 | < 0.1 | < 0.1 | < 0.1 | – | –
9 | Cn1cc2cc(-c3ccc4nc(N5CC[C@H](NC(C)(C)C)C5)ccc4n3)c(O)cc2n1 [Compound 154, 5-{6-[(3S)-3-(tert-butylamino)pyrrolidin-1-yl]-1,5-naphthyridin-2-yl}-2-methylindazol-6-ol] | < 100 | < 100 | < 0.1 | < 0.1 | < 0.1 | – | –
10 | Cn1cc2cc(-c3ccc4nc(N5CC[C@H](NC6CCC6)C5)ccc4n3)c(O)cc2n1 [Compound 156, 5-{6-[(3S)-3-(cyclobutylamino)pyrrolidin-1-yl]-1,5-naphthyridin-2-yl}-2-methylindazol-6-ol] | – | – | < 0.1 | < 0.1 | 0.1 to 1 | < 100 | < 100
11 | Cn1cc2cc(-c3ccc4nc(N5CC[C@@H](NC6CCC6)C5)ccc4n3)c(O)cc2n1 [Compound 157] | < 100 | < 100 | < 0.1 | < 0.1 | 0.1 to 1 | – | –
12 | Cn1cc2cc(-c3ccc4nc(N5CCC(NC6CC6)C5)ccc4n3)c(O)cc2n1 (stereo not drawn) [Compound 158] | < 100 | < 100 | < 0.1 | < 0.1 | < 0.1 | – | –
13 | Cn1cc2cc(-c3ccc4nc(OC5CNC5)ccc4n3)c(O)cc2n1 [Compound 159] | 1000 to 10000 | 1000 to 10000 | 1 to 10 | 0.1 to 1 | 1 to 10 | – | –
14 | Cn1cc2cc(-c3ccc4nc(N5CC[C@]67CCN[C@H]6CC[C@H]57)ccc4n3)c(O)cc2n1 [Compound 160, 5-{6-[(1R,55,85)-4,9-diazatricyclo[6.3.0.0^{1,5}]undecan-4-yl]-1,5-naphthyridin-2-yl}-2-methylindazol-6-ol] | 100 to 1000 | 100 to 1000 | 0.1 to 1 | < 0.1 | 1 to 10 | – | –
15 | COc1cc2ccncc2cc1-c1ccc2nc(N3CCC(NC(C)(C)C)C3)ccc2n1 (stereo not drawn) [Compound 161, N-tert-butyl-1-[6-(6-methoxyisoquinolin-7-yl)-1,5-naphthyridin-2-yl]pyrrolidin-3-amine] | > 10000 | > 10000 | > 10 | 1 to 10 | > 10 | – | –
16 | Cn1cc2cc(-c3ccc4nc(N5CCC56CCNC6)ccc4n3)c(O)cc2n1 (stereo not drawn) [Compound 162] | > 10000 | > 10000 | > 10 | 1 to 10 | > 10 | – | –
17 | Cn1cc2cc(-c3ccc4nc(N5CCC56CCCNC6)ccc4n3)c(O)cc2n1 (stereo not drawn) [Compound 163] | > 10000 | > 10000 | > 10 | 0.1 to 1 | > 10 | – | –
18 | Cn1cc2cc(-c3ccc4nc(N5CCC56CCNCC6)ccc4n3)c(O)cc2n1 [Compound 164] | 100 to 1000 | 100 to 1000 | 0.1 to 1 | 0.1 to 1 | 0.1 to 1 | – | –
19 | Cn1cc2cc(-c3ccc4nc(N5CC(NC(C)(C)C)C5)ccc4n3)c(O)cc2n1 [Compound 165] | 1000 to 10000 | 1000 to 10000 | 1 to 10 | 1 to 10 | 1 to 10 | – | –
20 | CC(C)(C)NC1CCN(c2ccc3nc(-c4cc5cnccc5cc4O)ccc3n2)C1 (stereo not drawn) [Compound 166, 7-{6-[3-(tert-butylamino)pyrrolidin-1-yl]-1,5-naphthyridin-2-yl}isoquinolin-6-ol] | > 10000 | > 10000 | > 10 | > 10 | > 10 | – | –
21 | Cn1cnc2cc(-c3ccc4nc(N5CCC(NC(C)(C)C)C5)ccc4n3)c(O)cc2c1=O (stereo not drawn) [Compound 167, 7-{6-[3-(tert-butylamino)pyrrolidin-1-yl]-1,5-naphthyridin-2-yl}-6-hydroxy-3-methylquinazolin-4-one] | > 10000 | > 10000 | > 10 | > 10 | > 10 | – | –
22 | COc1cc2c(=O)n(C)cnc2cc1-c1ccc2nc(N3CCC(NC(C)(C)C)C3)ccc2n1 (stereo not drawn) [Compound 168, 7-{6-[3-(tert-butylamino)pyrrolidin-1-yl]-1,5-naphthyridin-2-yl}-6-methoxy-3-methylquinazolin-4-one] | > 10000 | > 10000 | > 10 | > 10 | > 10 | – | –
23 | CN[C@H]1CCN(c2ccc3nc(-c4cc5cn(C)nc5cc4O)ccc3n2)C1 [Compound 170, 2-methyl-5-{6-[(3S)-3-(methylamino)pyrrolidin-1-yl]-1,5-naphthyridin-2-yl}indazol-6-ol] | < 100 | 100 to 1000 | < 0.1 | < 0.1 | 0.1 to 1 | – | –
24 | CC(C)N[C@H]1CCN(c2ccc3nc(-c4cc5cn(C)nc5cc4O)ccc3n2)C1 [Compound 171] | – | – | < 0.1 | < 0.1 | 0.1 to 1 | < 100 | < 100
25 | CN[C@@H]1CCN(c2ccc3nc(-c4cc5cn(C)nc5cc4O)ccc3n2)C1 [Compound 172] | < 100 | 100 to 1000 | < 0.1 | < 0.1 | 0.1 to 1 | – | –
26 | CC(C)N[C@@H]1CCN(c2ccc3nc(-c4cc5cn(C)nc5cc4O)ccc3n2)C1 [Compound 173] | < 100 | < 100 | < 0.1 | < 0.1 | < 0.1 | – | –
27 | Cc1cc(=O)c2cc(O)c(-c3ccc4nc(N5CCC(NC(C)(C)C)C5)ccc4n3)cc2o1 (stereo not drawn) [Compound 174] | > 10000 | > 10000 | > 10 | > 10 | > 10 | – | –
28 | Cc1nc2cc(O)c(-c3ccc4nc(N5CCC(NC(C)(C)C)C5)ccc4n3)cc2o1 (stereo not drawn) [Compound 175, 6-{6-[3-(tert-butylamino)pyrrolidin-1-yl]-1,5-naphthyridin-2-yl}-2-methyl-1,3-benzoxazol-5-ol] | < 100 | < 100 | < 0.1 | < 0.1 | < 0.1 | – | –
29 | COc1cc2nc(C)sc2cc1-c1ccc2nc(N3CCC(NC(C)(C)C)C3)ccc2n1 (stereo not drawn) [Compound 176, N-tert-butyl-1-[6-(5-methoxy-2-methyl-1,3-benzothiazol-6-yl)-1,5-naphthyridin-2-yl]pyrrolidin-3-amine] | 1000 to 10000 | 1000 to 10000 | 1 to 10 | 1 to 10 | 1 to 10 | – | –
30 | COc1cc2nc(C)oc2cc1-c1ccc2nc(N3CCC(NC(C)(C)C)C3)ccc2n1 (stereo not drawn) [Compound 177, N-tert-butyl-1-[6-(5-methoxy-2-methyl-1,3-benzoxazol-6-yl)-1,5-naphthyridin-2-yl]pyrrolidin-3-amine] | 1000 to 10000 | 1000 to 10000 | 1 to 10 | 1 to 10 | 1 to 10 | – | –
